Data: US8877748B2, “Heterocyclic fused anthraquinone derivatives, manufacturing method and pharmaceutical composition using thereof” (National Defense Medical Center, priority 2012, dated 2014)
Blank lines part the entries; values can stand above or below the compound they belong to.

Experiments:
[1] = test system: PC-3 prostate cancer cell line; assay: SRB assay cell viability, PC-3 prostate cancer cell line; assay type: cell-based, human; settings: Homo sapiens, PC-3 prostate cancer cell line, Table II prints no unit, μM printed, read-out: SRB assay: 50% inhibition of cancer cell proliferation of sample concentration (IC50) of PC-3 prostate cancer cell line
[2] = test system: EKVX; assay: NCI one-dose screening, non-small cell lung cancer EKVX; assay type: cell-based, human; settings: 10 μM
[3] = test system: HOP-62; assay: NCI one-dose screening, non-small cell lung cancer HOP-62; assay type: cell-based, human; settings: 10 μM
[4] = test system: NCI-H226; assay: NCI one-dose screening, non-small cell lung cancer NCI-H226; assay type: cell-based, human; settings: 10 μM
[5] = test system: NCI-H23; assay: NCI one-dose screening, non-small cell lung cancer NCI-H23; assay type: cell-based, human; settings: 10 μM
[6] = test system: NCI-H522; assay: NCI one-dose screening, non-small cell lung cancer NCI-H522; assay type: cell-based, human; settings: 10 μM
[7] = test system: A549/ATCC; assay: NCI one-dose screening, non-small cell lung cancer A549/ATCC; assay type: cell-based, human; settings: 10 μM
[8] = test system: COLO 205; assay: NCI one-dose screening, colon cancer COLO 205; assay type: cell-based, human; settings: 10 μM
[9] = test system: HCC-2998; assay: NCI one-dose screening, colon cancer HCC-2998; assay type: cell-based, human; settings: 10 μM
[10] = test system: HCT-116; assay: NCI one-dose screening, colon cancer HCT-116; assay type: cell-based, human; settings: 10 μM
[11] = test system: HCT-15; assay: NCI one-dose screening, colon cancer HCT-15; assay type: cell-based, human; settings: 10 μM
[12] = test system: HT29; assay: NCI one-dose screening, colon cancer HT29; assay type: cell-based, human; settings: 10 μM
[13] = test system: SF-539; assay: NCI one-dose screening, CNS cancer SF-539; assay type: cell-based, human; settings: 10 μM
[14] = test system: SNB-19; assay: NCI one-dose screening, CNS cancer SNB-19; assay type: cell-based, human; settings: 10 μM
[15] = test system: SNB-75; assay: NCI one-dose screening, CNS cancer SNB-75; assay type: cell-based, human; settings: 10 μM
[16] = test system: U251; assay: NCI one-dose screening, CNS cancer U251; assay type: cell-based, human; settings: 10 μM
[17] = test system: LOX IMVI; assay: NCI one-dose screening, melanoma LOX IMVI; assay type: cell-based, human; settings: 10 μM
[18] = test system: MALME-3M; assay: NCI one-dose screening, melanoma MALME-3M; assay type: cell-based, human; settings: 10 μM
[19] = test system: M14; assay: NCI one-dose screening, melanoma M14; assay type: cell-based, human; settings: 10 μM
[20] = test system: UACC-62; assay: NCI one-dose screening, melanoma UACC-62; assay type: cell-based, human; settings: 10 μM
[21] = test system: UACC-257; assay: NCI one-dose screening, melanoma UACC-257; assay type: cell-based, human; settings: 10 μM
[22] = test system: SK-MEL-2; assay: NCI one-dose screening, melanoma SK-MEL-2; assay type: cell-based, human; settings: 10 μM
[23] = test system: SK-MEL-28; assay: NCI one-dose screening, melanoma SK-MEL-28; assay type: cell-based, human; settings: 10 μM
[24] = test system: SK-MEL-5; assay: NCI one-dose screening, melanoma SK-MEL-5; assay type: cell-based, human; settings: 10 μM
[25] = test system: IGROV1; assay: NCI one-dose screening, ovarian cancer IGROV1; assay type: cell-based, human; settings: 10 μM
[26] = test system: OVCAR-5; assay: NCI one-dose screening, ovarian cancer OVCAR-5; assay type: cell-based, human; settings: 10 μM
[27] = test system: OVCAR-8; assay: NCI one-dose screening, ovarian cancer OVCAR-8; assay type: cell-based, human; settings: 10 μM
[28] = test system: SK-OV-3; assay: NCI one-dose screening, ovarian cancer SK-OV-3; assay type: cell-based, human; settings: 10 μM
[29] = test system: 786-O; assay: NCI one-dose screening, renal cancer 786-O; assay type: cell-based, human; settings: 10 μM
[30] = test system: CAKI-1; assay: NCI one-dose screening, renal cancer CAKI-1; assay type: cell-based, human; settings: 10 μM
[31] = test system: ACHN; assay: NCI one-dose screening, renal cancer ACHN; assay type: cell-based, human; settings: 10 μM
[32] = test system: SN12C; assay: NCI one-dose screening, renal cancer SN12C; assay type: cell-based, human; settings: 10 μM
[33] = test system: TK-10; assay: NCI one-dose screening, renal cancer TK-10; assay type: cell-based, human; settings: 10 μM
[34] = test system: UO-31; assay: NCI one-dose screening, renal cancer UO-31; assay type: cell-based, human; settings: 10 μM
[35] = test system: RXF, 393; assay: NCI one-dose screening, renal cancer RXF, 393; assay type: cell-based, human; settings: 10 μM
[36] = test system: MCF7; assay: NCI one-dose screening, breast cancer MCF7; assay type: cell-based, human; settings: 10 μM
[37] = test system: MDA-MB-231/ATCC; assay: NCI one-dose screening, breast cancer MDA-MB-231/ATCC; assay type: cell-based, human; settings: 10 μM
[38] = test system: MDA-MB-468; assay: NCI one-dose screening, breast cancer MDA-MB-468; assay type: cell-based, human; settings: 10 μM
[39] = test system: NCl/ADR-RES; assay: NCI one-dose screening, breast cancer NCl/ADR-RES; assay type: cell-based, human; settings: 10 μM; listed under Ovarian cancer
[40] = test system: BT-549; assay: NCI one-dose screening, breast cancer BT-549; assay type: cell-based, human; settings: 10 μM
[41] = test system: T-47D; assay: NCI one-dose screening, breast cancer T-47D; assay type: cell-based, human; settings: 10 μM
[42] = test system: MDA, -MB-435; assay: NCI one-dose screening, breast cancer MDA, -MB-435; assay type: cell-based, human; settings: 10 μM; listed under Melanoma
[43] = test system: human tumor cell lines; assay: NCI one-dose screening, Mean / Delta / Range of growth percent over all tested cell lines; assay type: cell-based; settings: 10 μM

Compound: CC(C)c1ccccc1Sc1cc2c(c3nsnc13)C(=O)c1ccccc1C2=O [C52, 4-(2-isopropyl-phenyl-thio)anthra[2,1-c] [1,2,5]thiadiazol-6,11-dione]
IC50 [1]: > 15 µM

Compound: O=C1c2ccccc2C(=O)c2c1cc(SCc1ccccc1Cl)c1nsnc21 [C53, 4-(2-chloro-benzylthio)anthra[2,1-C] [1,2,5]thiadiazol-6,11-dione]
IC50 [1]: 5.84 µM

Compound: O=C1c2ccccc2C(=O)c2c1cc(Nc1cccc(Cl)c1)c1nsnc21 [C63, 4-(3-chloro-phenylamino)anthra[2,1-c] [1,2,5]thiadiazol-6,11-dione]
IC50 [1]: 2.28 µM

More lines, main results first:

IC50 [1]: > 15 µM
Compound: CCOc1cccc(Sc2cc3c(c4nsnc24)C(=O)c2ccccc2C3=O)c1 [C50, 4-(3-ethoxy-phenylthio)anthra[2,1-c] [1,2,5]thiadiazol-6,11-dione]
Growth Percent EKVX [2]: 102.26%
Growth Percent HOP-62 [3]: 91.94%
Growth Percent NCI-H226 [4]: 90.47%
Growth Percent NCI-H23 [5]: 94.07%
Growth Percent NCI-H522 [6]: 98.19%
Growth Percent A549/ATCC [7]: 111.48%
Growth Percent COLO 205 [8]: 106.49%
Growth Percent HCC-2998 [9]: 105.49%
Growth Percent HCT-116 [10]: 100.93%
Growth Percent HCT-15 [11]: 103.08%
Growth Percent HT29 [12]: 106.40%
Growth Percent SF-539 [13]: 93.72%
Growth Percent SNB-19 [14]: 103.22%
Growth Percent SNB-75 [15]: 77.25%
Growth Percent U251 [16]: 109.69%
Growth Percent LOX IMVI [17]: 84.11%
Growth Percent MALME-3M [18]: 108.70%
Growth Percent M14 [19]: 103.80%
Growth Percent UACC-62 [20]: 108.85%
Growth Percent UACC-257 [21]: 126.28%
Growth Percent SK-MEL-2 [22]: 102.98%
Growth Percent SK-MEL-28 [23]: 112.20%
Growth Percent SK-MEL-5 [24]: 106.82%
Growth Percent IGROV1 [25]: 94.67%
Growth Percent OVCAR-5 [26]: 116.60%
Growth Percent OVCAR-8 [27]: 112.41%
Growth Percent SK-OV-3 [28]: 99.36%
Growth Percent 786-0 [29]: 100.25%
Growth Percent CAKI-1 [30]: 84.23%
Growth Percent ACHN [31]: 103.33%
Growth Percent SN12C [32]: 104.76%
Growth Percent TK-10 [33]: 125.26%
Growth Percent UO-31 [34]: 76.69%
Growth Percent RXF 393 [35]: 118.35%
Growth Percent MCF7 [36]: 78.81%
Growth Percent MDA-MB-231/ATCC [37]: 100.81%
Growth Percent MDA-MB-468 [38]: 108.00%
Growth Percent NCI/ADR-RES [39]: 101.92%
Growth Percent BT-549 [40]: 103.88%
Growth Percent T-47D [41]: 86.51%
Growth Percent MDA-MB-435 [42]: 106.07%
Growth Percent Delta ([43]; delta over all cell lines): 25.00%
Growth Percent Mean ([43]; mean over all cell lines): 101.69%
Growth Percent Range ([43]; range over all cell lines): 49.59%

IC50 [1]: > 15 µM
Compound: CCc1ccccc1Sc1cc2c(c3nsnc13)C(=O)c1ccccc1C2=O [C51, 4-(2-ethyl-phenylthio)anthra[2,1-c][1,2,5] thiadiazol-6,11-dione]

IC50 [1]: 0.29 µM
Compound: Cc1cccc(Nc2cc3c(c4nsnc24)C(=O)c2ccccc2C3=O)c1 [C62, 4-(m-tolylamino)anthra[2,1-c][1,2,5] thiadiazol-6,11-dione]
